Values quoted from earlier work, collected in patent US20060052354A1, “Methods for treating migraine” (Corcept Therapeutics, Inc., priority 2002, published 2006).

Legend:
[1] = in one study (Kawai)
[2] = molecular target: T1, glucocorticoid (GR) receptors (Homo sapiens, UniProt P04150)
T1 sequence (P04150 1-777): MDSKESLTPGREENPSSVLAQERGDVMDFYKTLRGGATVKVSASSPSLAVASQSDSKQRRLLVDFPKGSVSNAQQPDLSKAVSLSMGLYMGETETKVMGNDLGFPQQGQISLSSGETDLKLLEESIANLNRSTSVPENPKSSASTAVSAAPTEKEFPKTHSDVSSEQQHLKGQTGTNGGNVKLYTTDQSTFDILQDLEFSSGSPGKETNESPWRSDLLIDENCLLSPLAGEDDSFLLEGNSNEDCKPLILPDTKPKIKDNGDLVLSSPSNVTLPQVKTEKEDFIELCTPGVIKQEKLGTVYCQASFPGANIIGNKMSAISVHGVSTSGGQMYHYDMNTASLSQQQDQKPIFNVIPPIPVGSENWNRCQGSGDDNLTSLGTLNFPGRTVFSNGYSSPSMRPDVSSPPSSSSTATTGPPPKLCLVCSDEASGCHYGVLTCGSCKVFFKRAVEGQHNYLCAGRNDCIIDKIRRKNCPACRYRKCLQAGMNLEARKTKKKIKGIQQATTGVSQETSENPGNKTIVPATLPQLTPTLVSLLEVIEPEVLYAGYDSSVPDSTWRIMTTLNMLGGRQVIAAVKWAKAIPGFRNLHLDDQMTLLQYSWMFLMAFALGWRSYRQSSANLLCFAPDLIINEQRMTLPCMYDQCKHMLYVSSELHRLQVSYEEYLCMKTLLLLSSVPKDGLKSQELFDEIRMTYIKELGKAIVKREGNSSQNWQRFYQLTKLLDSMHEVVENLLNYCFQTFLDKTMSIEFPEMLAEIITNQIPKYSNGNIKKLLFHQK

progesterone receptor = molecular target: T2, progesterone receptor (Homo sapiens, UniProt P06401)
T2 sequence (P06401 1-933): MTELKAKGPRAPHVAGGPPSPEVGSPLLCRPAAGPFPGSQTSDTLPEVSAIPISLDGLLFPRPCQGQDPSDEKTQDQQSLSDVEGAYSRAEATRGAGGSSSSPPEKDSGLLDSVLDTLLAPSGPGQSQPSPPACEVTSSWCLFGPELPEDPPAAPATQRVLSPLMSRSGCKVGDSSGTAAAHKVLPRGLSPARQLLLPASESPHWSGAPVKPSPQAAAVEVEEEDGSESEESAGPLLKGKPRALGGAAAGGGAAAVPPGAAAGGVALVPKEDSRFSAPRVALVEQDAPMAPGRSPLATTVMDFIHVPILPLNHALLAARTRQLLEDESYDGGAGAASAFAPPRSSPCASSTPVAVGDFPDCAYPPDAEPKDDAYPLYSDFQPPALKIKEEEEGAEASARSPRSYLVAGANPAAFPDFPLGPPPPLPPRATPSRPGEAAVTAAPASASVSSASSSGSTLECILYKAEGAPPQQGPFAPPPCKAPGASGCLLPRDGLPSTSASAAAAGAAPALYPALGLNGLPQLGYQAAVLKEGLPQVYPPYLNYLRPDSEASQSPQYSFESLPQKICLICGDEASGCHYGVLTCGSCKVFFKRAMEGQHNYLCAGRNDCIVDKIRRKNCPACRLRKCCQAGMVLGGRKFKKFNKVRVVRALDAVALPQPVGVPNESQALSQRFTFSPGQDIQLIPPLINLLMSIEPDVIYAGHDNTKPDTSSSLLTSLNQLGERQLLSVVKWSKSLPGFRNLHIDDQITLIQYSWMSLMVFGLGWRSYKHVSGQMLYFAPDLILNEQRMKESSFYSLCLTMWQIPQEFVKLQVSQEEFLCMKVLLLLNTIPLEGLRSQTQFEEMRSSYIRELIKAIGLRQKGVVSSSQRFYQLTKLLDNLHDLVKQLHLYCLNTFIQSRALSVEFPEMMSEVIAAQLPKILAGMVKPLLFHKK

[3] = molecular target: T3, Mineralocorticoid receptors (MRs) (Homo sapiens, UniProt P08235); details: MR versus GR
T3 sequence (P08235 1-984): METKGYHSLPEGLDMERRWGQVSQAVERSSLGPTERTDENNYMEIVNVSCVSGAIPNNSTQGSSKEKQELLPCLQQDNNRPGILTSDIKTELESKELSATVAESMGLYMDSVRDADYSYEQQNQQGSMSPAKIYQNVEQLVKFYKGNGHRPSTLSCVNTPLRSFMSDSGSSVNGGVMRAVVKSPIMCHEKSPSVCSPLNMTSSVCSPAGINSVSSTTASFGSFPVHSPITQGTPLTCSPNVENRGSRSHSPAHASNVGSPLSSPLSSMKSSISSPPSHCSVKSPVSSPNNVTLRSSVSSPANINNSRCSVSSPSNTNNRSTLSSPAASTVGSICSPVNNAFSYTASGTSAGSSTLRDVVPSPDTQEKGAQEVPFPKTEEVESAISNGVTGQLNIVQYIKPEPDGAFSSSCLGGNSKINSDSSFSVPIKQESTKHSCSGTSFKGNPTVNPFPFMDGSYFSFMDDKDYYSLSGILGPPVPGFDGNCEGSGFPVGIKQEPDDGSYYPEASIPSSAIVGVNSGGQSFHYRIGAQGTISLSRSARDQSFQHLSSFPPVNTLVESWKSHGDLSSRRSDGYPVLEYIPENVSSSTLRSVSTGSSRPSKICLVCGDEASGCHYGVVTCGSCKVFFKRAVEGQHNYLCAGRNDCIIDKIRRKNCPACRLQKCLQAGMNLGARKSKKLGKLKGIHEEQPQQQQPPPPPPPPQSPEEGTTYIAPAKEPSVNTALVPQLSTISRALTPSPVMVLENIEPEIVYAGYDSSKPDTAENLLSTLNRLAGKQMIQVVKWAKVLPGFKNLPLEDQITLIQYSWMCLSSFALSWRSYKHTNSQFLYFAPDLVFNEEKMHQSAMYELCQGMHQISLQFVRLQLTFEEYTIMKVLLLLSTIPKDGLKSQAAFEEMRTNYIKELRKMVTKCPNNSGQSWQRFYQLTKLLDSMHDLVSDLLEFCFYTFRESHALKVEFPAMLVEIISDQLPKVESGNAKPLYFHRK

Row | SMILES | daily dose excreted in the urine [1] | antagonist of the glucocorticoid (GR) receptor [2] | antagonist of the progesterone receptor (progesterone receptor) | affinity of MRs for cortisol relative to GRs for glucocorticoids [3]
1 | CC#C[C@]1(O)CC[C@H]2[C@@H]3CCC4=CC(=O)CCC4=C3[C@@H](c3ccc(N(C)C)cc3)C[C@@]21C [Mifepristone, (11β,17β) 11 [4 (dimethylamino)phenyl]-17 hydroxy-17 (1 propynyl)estra-4,9 dien-3 one] | less than 0.5% | powerful antagonist | powerful antagonist | –
2 | CC#C[C@]1(O)CC[C@H]2[C@@H]3CCC4=CC(=O)CCC4=C3[C@@H](c3ccc(OCCN(C)C)cc3)C[C@@]21C [RU009, 11β-(4-dimethylaminoethoxyphenyl)-17α-propynyl-17β-hydroxy-4,9-estradien-3-one] | – | GR antagonist effects | – | –
3 | C[C@]12CCC(=O)C=C1CC[C@@H]1[C@@H]2[C@@H](O)C[C@@]2(C)[C@H]1CC[C@]2(O)C(=O)CO [cortisol] | – | – | – | ten-fold
